Experimental data published in patent publication US12344614B2, “Benzodiazepine derivatives as GABA a GAMMA1 PAM” (Hoffmann-La Roche Inc., priority 2021, dated 2025).
Read-outs that look alike come from different tables or passages of the source.

Experiments:
[1] = target: h-GABA-A α2β2γ1 receptor (Homo sapiens (Human), UniProt P47869+Q8N1C3); assay: Two-electrode voltage clamp electrophysiology in Xenopus oocytes expressing GABAA receptors; format: cell-based; conditions: for Efficacy (GABA) %: % modulation of GABA EC20 = 100*(Fold increase−1), compound at 30-fold Ki α2β2γ1; for Fold increase h-GABA-A α2β2γ1 oocyte @ 30-fold Ki: Xenopus oocytes, GABA EC20, test compound at approx. 30-fold its Ki α2β2γ1
Description: Xenopus laevis oocytes at maturation stages V-VI were used for the expression of cloned mRNA encoding GABAA receptor subunits. Oocytes ready for RNA micro-injection were bought from Ecocyte, Castrop-Rauxel, Germany and stored in modified Barth's medium (composition in mM: NaCl 88, KCl 1, NaHCO3 2.4, HEPES 10, MgSO4 0.82, CaNO3 0.33, CaCl2 0.33, pH=7.5) at 20° C. until the experiment.
Oocytes were plated in 96-well plates for microinjection using the Roboinject automated instrument (MultiChannelSystems, Reutlingen, Germany). Approximately 50 nL of an aqueous solution containing the RNA transcripts for the subunits of the desired GABAA receptor subtype was injected into each oocyte. […] Oocytes were kept in modified Barth's medium (composition in mM: NaCl 88, KCl 1, NaHCO3 4, HEPES 10, MgSO4 0.82, CaNO3 0.33, CaCl, 0.33, pH=7.5) at 20° C. until the experiment.
Electrophysiological experiments were performed using the Roboocyte instrument (MultiChannelSystems, Reutlingen, Germany) on days 3 to 5 after the micro-injection of mRNA. During the experiment the oocytes were constantly superfused by a solution containing (in mM) NaCl 90, KCl 1, HEPES 5, MgCl2 1, CaCl2 1 (pH 7.4). Oocytes were impaled by two glass microelectrodes (resistance: 0.5-0.8 MΩ) which were filled with a solution containing KCl 1M+K-acetate 1.5 M and voltage-clamped to −80 mV. The recordings were performed at room temperature using the Roboocyte two-electrode voltage clamp system (Multichannelsystem). After an initial equilibration period of 1.5 min GABA was added for 1.5 min at a concentration evoking approximately 20% of a maximal current response (EC2O). After another rest interval of 2.5 min GABA was again added evoking a response of similar amplitude and shape. […] Current traces were recorded at a digitization rate of 10 Hz during and shortly before and after the GABA application.
Each compound and concentration was tested on at least 3 oocytes. Different oocytes were used for different compound concentrations.
For the analysis, the digitized current traces of the first and second GABA response were superimposed and, if necessary, rescaled to equal maximal amplitudes. The ratio between the two responses during the time interval of test compound application was calculated point by point. The extremum of the resulting “ratio trace” was taken as the efficacy (“Fold increase”) of the compound expressed as “% modulation of GABA EC20” (100*(Fold increase−1)).

[2] = target: human GABAA α1β2γ1 receptor (Homo sapiens (Human), UniProt P14867+Q8N1C3); assay: Radioligand binding assay, competition for [3H]RO7239181, membranes from HEK293F cells

SMILES	Efficacy (GABA) % [1] [%]	Fold increase h-GABA-A α2β2γ1 oocyte @ 30-fold Ki [1]	Ki [2] [nM]	Ki ([2]; [3H]RO7239181 20-30 nM, HEK293F membranes, 1 hour at 4° C., mean of two determinations, read-out: Ki h-GABAA α1β2γ1) [nM]
Cc1nnc2n1-c1ccc(C(F)(F)F)c(Cl)c1C(c1cc(O)ccc1F)=N[C@H]2C [Example 17, 4-fluoro-3-[(4S)-7-chloro-1,4-dimethyl-8-(trifluoromethyl)-4H-[1,2,4]triazolo[4,3-a][1,4]benzodiazepin-6-yl]phenol]	77	1.77	–	–
Oc1ccc(F)c(C2=NCc3nncn3-c3ccc(C(F)(F)F)c(Cl)c32)c1 [Example 10, 3-[7-chloro-8-(trifluoromethyl)-4H-[1,2,4]triazolo[4,3-a][1,4]benzodiazepin-6-yl]-4-fluoro-phenol]	73	1.73	–	–
CN1C(=O)CN=C(c2c(F)ccc(O)c2F)c2c1ccc(Cl)c2Cl [Example 12, 6,7-dichloro-5-(2,6-difluoro-3-hydroxy-phenyl)-1-methyl-3H-1,4-benzodiazepin-2-one]	99	1.99	–	–
Cc1nnc2n1-c1ccc(C(F)(F)F)c(Cl)c1C(c1cc(O)ccc1F)=NC2 [Example 9, 3-[7-chloro-1-methyl-8-(trifluoromethyl)-4H-[1,2,4]triazolo[4,3-a][1,4]benzodiazepin-6-yl]-4-fluoro-phenol]	69	1.69	8.45	–
Cc1cnc2n1-c1ccc(C(F)(F)F)c(Cl)c1C(c1nc(O)ccc1Cl)=N[C@H]2C [Example 26, 5-chloro-6-[(4S)-7-chloro-1,4-dimethyl-8-(trifluoromethyl)-4H-imidazo[1,2-a][1,4]benzodiazepin-6-yl]pyridin-2-ol]	79	1.79	20.5	–
Cc1nnc2n1-c1ccc(Cl)c(Cl)c1C(c1cc(O)ccc1F)=NC2 [Example 3, 3-(7,8-dichloro-1-methyl-4H-[1,2,4]triazolo[4,3-a][1,4]benzodiazepin-6-yl)-4-fluoro-phenol]	67	1.67	5.44	–
CN1C(=O)CN=C(c2cc(O)ccc2F)c2c1ccc(C(F)(F)F)c2Cl [Example 8, 6-chloro-5-(2-fluoro-5-hydroxy-phenyl)-1-methyl-7-(trifluoromethyl)-3H-1,4-benzodiazepin-2-one]	75	1.75	5.43	–
C[C@@H]1N=C(c2c(F)ccc(O)c2F)c2c(ccc(Cl)c2Cl)-n2ccc(=O)nc21 [Example 18, (5S)-8,9-dichloro-7-(2,6-difluoro-3-hydroxy-phenyl)-5-methyl-5H-pyrimido[1,2-a][1,4]benzodiazepin-3-one]	57	1.57	–	–
Cc1nnc2n1-c1ccc(Cl)c(Cl)c1C(c1c(F)ccc(O)c1F)=NC2 [Example 13, 3-(7,8-dichloro-1-methyl-4H-[1,2,4]triazolo[4,3-a][1,4]benzodiazepin-6-yl)-2,4-difluoro-phenol]	72	1.72	–	–
O=c1ccn2c(n1)CN=C(c1cc(O)ccc1F)c1c-2ccc(Cl)c1Cl [Example 6, 8,9-dichloro-7-(2-fluoro-5-hydroxy-phenyl)-5H-pyrimido[1,2-a][1,4]benzodiazepin-3-one]	92	1.92	–	–
Cc1nc2n(n1)-c1ccc(C(F)(F)F)c(Cl)c1C(c1nc(O)ccc1F)=N[C@H]2C [Example 25, 6-[(4S)-7-chloro-2,4-dimethyl-8-(trifluoromethyl)-4H-[1,2,4]triazolo[1,5-a][1,4]benzodiazepin-6-yl]-5-fluoro-pyridin-2-ol]	45	1.45	25.3	–
C[C@@H]1N=C(c2nc(O)ccc2F)c2c(ccc(C(F)(F)F)c2Cl)-n2c1nc1c2CCC1 [Example 24, 6-[(10S)-6-chloro-10-methyl-5-(trifluoromethyl)-1,9,12-triazatetracyclo[9.6.0.02,7.013,17]heptadeca-2(7),3,5,8,11,13(17)-hexaen-8-yl]-5-fluoro-pyridin-2-ol]	64	1.64	–	–
Cc1nnc2n1-c1ccc(C(F)(F)F)c(Cl)c1C(c1nc(O)ccc1F)=N[C@H]2C [Example 20, 6-[(4S)-7-chloro-1,4-dimethyl-8-(trifluoromethyl)-4H-[1,2,4]triazolo[4,3-a][1,4]benzodiazepin-6-yl]-5-fluoro-pyridin-2-ol]	120	2.20	68.1	–
COC1CN(C(=O)c2nc3n(n2)-c2ccc(C(F)(F)F)c(Cl)c2C(c2cc(O)ccc2F)=NC3)C1 [Example 16, [7-chloro-6-(2-fluoro-5-hydroxy-phenyl)-8-(trifluoromethyl)-4H-[1,2,4]triazolo[1,5-a][1,4]benzodiazepin-2-yl]-(3-methoxyazetidin-1-yl)methanone]	48	1.48	–	11.4
C[C@@H]1N=C(c2cc(O)ccc2F)c2c(ccc(Cl)c2Cl)-n2ccc(=O)nc21 [Example 5, (5S)-8,9-dichloro-7-(2-fluoro-5-hydroxy-phenyl)-5-methyl-5H-pyrimido[1,2-a][1,4]benzodiazepin-3-one]	46	1.46	3.3	–
O=c1ccn2c(n1)CN=C(c1c(F)ccc(O)c1F)c1c-2ccc(Cl)c1Cl [Example 14, 8,9-dichloro-7-(2,6-difluoro-3-hydroxy-phenyl)-5H-pyrimido[1,2-a][1,4]benzodiazepin-3-one]	68	1.68	–	–
C[C@@H]1N=C(c2nc(O)ccc2F)c2c(ccc(C(F)(F)F)c2Cl)-n2cc(C(=O)N3CCC3)nc21 [Example 30, azetidin-1-yl-[(4S)-7-chloro-6-(3-fluoro-6-hydroxy-2-pyridyl)-4-methyl-8-(trifluoromethyl)-4H-imidazo[1,2-a][1,4]benzodiazepin-2-yl]methanone]	120	2.20	–	–
COC1CN(C(=O)c2nc3n(n2)-c2ccc(Cl)c(Cl)c2C(c2cc(O)ccc2F)=NC3)C1 [Example 7, [7,8-dichloro-6-(2-fluoro-5-hydroxy-phenyl)-4H-[1,2,4]triazolo[1,5-a][1,4]benzodiazepin-2-yl]-(3-methoxyazetidin-1-yl)methanone]	65	1.65	–	–
COC1CN(C(=O)c2ncn3c2CN=C(c2cc(O)ccc2F)c2c-3ccc(C(F)(F)F)c2Cl)C1 [Example 15, [7-chloro-6-(2-fluoro-5-hydroxy-phenyl)-8-(trifluoromethyl)-4H-imidazo[1,5-a][1,4]benzodiazepin-3-yl]-(3-methoxyazetidin-1-yl)methanone]	80	1.80	–	–
Cc1cnc2n1-c1ccc(C(F)(F)F)c(Cl)c1C(c1nc(O)ccc1F)=N[C@H]2C [Example 23, 6-[(4S)-7-chloro-1,4-dimethyl-8-(trifluoromethyl)-4H-imidazo[1,2-a][1,4]benzodiazepin-6-yl]-5-fluoro-pyridin-2-ol]	68	1.68	–	–
Cc1nc2n(n1)-c1ccc(C(F)(F)F)c(Cl)c1C(c1nc(O)ccc1Cl)=N[C@H]2C [Example 29, 5-chloro-6-[(4S)-7-chloro-2,4-dimethyl-8-(trifluoromethyl)-4H-[1,2,4]triazolo[1,5-a][1,4]benzodiazepin-6-yl]pyridin-2-ol]	70	1.70	–	–
